Data set [1] is described as follows: Dark toxicity in human ECA109 cells assessed as cell viability at 5 uM after 24 hrs by MTT assay (reference value: 80%). It is filed as cell-based, ECa-109. To be noted: read-out: Activity. Background: Tetrazolium dyes change colour on reduction, which living cells bring about.
Data set [2] in a line: Octanol/water partition coefficient, log P of the compound by shake-flask method. Format: physicochemical.
A short description of data set [3]: Dark toxicity in human ECA109 cells assessed as decrease in cell viability up to 1 uM after 24 hrs by MTT assay. It is filed as cell-based. As to conditions: eca-109, 24 h.
Data set [4] concerns ECa-109 cell line. The data set is described as follows: Photocytotoxicity against human ECA109 cells assessed as decrease in cell viability at 1 uM preincubated for 24 hrs followed by laser irradiation at 1 to 32 J/Cm'2 by MTT assay. It is filed as functional, cell-based.
Data set [5] is described as follows: […] assessed as singlet oxygen release by measuring DPBF oxidation rate in presence of 650 nm light by UV-vis spectrophotometer. Format: functional.
In data set [6] the test system is ECa-109 cell line. The data set is described as follows: Induction of apoptosis in human ECA109 cells assessed as early apoptotic cells at 1 uM preincubated for 24 hrs followed by laser irradiation at 16 J/cm'2 and measured after 24 hrs by annexin V/propidium iodide staining-based flow cytometric method (reference value: 2.45%). It is filed as functional. (In general: A flow cytometer gives signals particle by particle.)

The subject of data set [7] is ECa-109 cell line. The data set is described as follows: Induction of apoptosis in human ECA109 cells assessed as late apoptotic/necrotic cells at 5 uM preincubated for 24 hrs followed by laser irradiation at 16 J/cm'2 and measured after 24 hrs by annexin V/propidium iodide staining-based flow cytometric method (reference value: 0.08%). It is filed as functional.
Data set [8] in a line: Drug uptake in nuclear membrane of human ECA109 cells at 5 uM incubated for 4 hrs in dark condition by Hoechst 33342 staining-based confocal fluorescence microscopy. To be noted: eca-109, 4 h. It is filed as ADME, cell membranes.
Data set [9] concerns ECa-109 cell line. The data set is described as follows: Induction of apoptosis in human ECA109 cells assessed as early apoptotic cells at 5 uM preincubated for 24 hrs followed by laser irradiation at 16 J/cm'2 and measured after 24 hrs by annexin V/propidium iodide staining-based flow cytometric method (reference value: 2.45%). Format: functional.
Data set [10] has as its system ECa-109 cell line. The data set is described as follows: Induction of apoptosis in human ECA109 cells assessed as increase in late apoptotic/necrotic cells preincubated for 24 hrs followed by laser irradiation at 16 J/cm'2 and measured after 24 hrs by annexin V/propidium iodide staining-based flow cytometric method. It is filed as functional, cell-based.
A short description of data set [11]: Drug uptake in cytoplasm of human ECA109 cells at 5 uM incubated for 4 hrs in dark condition by Hoechst 33342 staining-based confocal fluorescence microscopy. Format: ADME, subcellular. To be noted: eca-109, 4 h.
The test system of data set [12] is ECa-109 cell line. The data set is described as follows: Induction of apoptosis in human ECA109 cells assessed as late apoptotic/necrotic cells at 1 uM preincubated for 24 hrs followed by laser irradiation at 16 J/cm'2 and measured after 24 hrs by annexin V/propidium iodide staining-based flow cytometric method (reference value: 0.08%). It is filed as functional.

The test system of data set [13] is ECa-109 cell line. The data set is described as follows: Decrease in tumor volume in human ECA109 cells xenografted in BALB/c nude mouse at 3 mg/kg, iv measured at 21 days post treatment in absence of laser irradiation. It is filed as ADME, organism-based. To be noted: in vivo, 504 h. Background: Xenograft models place foreign cells or tissue in a host animal.

Data set [14] deals with ECa-109 cell line. The data set is described as follows: Antitumor activity against human ECA109 cells xenografted in BALB/c nude mouse assessed as decrease in tumor volume at 3 mg/kg, iv measured at 3 to 21 days post treatment in presence of 100 J/cm2 laser irradiation. It is filed as functional, organism-based.

Activity calls are given as the source filed them. No cut-off for these calls is given here.

Usually logP stands for the decadic logarithm of the partition coefficient of the neutral form, usually between octanol and water.

As for `CCCOC(C)c1c(C)c2cc3nc(c4c5[nH]c(cc6nc(cc1[nH]2)C(C)=C6CC)c(C)c5C(=O)C4)[C@@H](CCC(=O)N(CCC(=O)O)CCC(=O)O)[C@@H]3C` (stereo partly specified), the viability at 24 h, 5 µM in [1] turned out to be 50%. In data set [2], this molecule yielded a logP of 2.7. For the same molecule, the Activity result in data set [3] is recorded as “Non-Toxic”. For the same molecule, the result with ECa-109 cell line [4] was Active. The K in [5] was 0.0266 min⁻¹.

On to `CCCCCOC(C)c1c(C)c2cc3nc(c4c5[nH]c(cc6nc(cc1[nH]2)C(C)=C6CC)c(C)c5C(=O)C4)[C@@H](CCC(=O)N(CCC(=O)O)CCC(=O)O)[C@@H]3C` (stereo partly specified), for which, in data set [1], the viability at 24 h, 5 µM was determined as 50%. In addition, the logP in [2] turned out to be 3.1. Moreover, the Activity result in data set [3] is recorded as “Non-Toxic”. The result with ECa-109 cell line [4] was Active. In data set [5], the K was determined as 0.0241 min⁻¹.

`C=Cc1c(C)c2cc3nc(c4c5[nH]c(cc6nc(cc1[nH]2)C(C)=C6CC)c(C)c5C(=O)C4)[C@@H](CCC(=O)N(CCC(=O)OC)CCC(=O)OC)[C@@H]3C` showed a logP in data set [2] of 3.3.

Take `CCC1=C(C)c2cc3[nH]c(cc4nc(c5c6[nH]c(cc1n2)c(C)c6C(=O)C5)[C@@H](CCC(=O)N(CCC(=O)O)CCC(=O)O)[C@@H]4C)c(C)c3C(C)OC` (stereo partly specified): the Activity in the data set with ECa-109 cell line [6] was 7.38%; with ECa-109 cell line [7], 81.22%; in [3], “Non-Toxic”; in the data set on ECa-109 cell line [9] it was 5.41%; in the data set with ECa-109 cell line [10], “Dose-dependent effect”; with ECa-109 cell line [12] it was 60.46%. Besides, the Activity entry in the data set on ECa-109 cell line [13] is listed as “Non-Toxic”. For the same molecule, the viability at 24 h, 5 µM in data set [1] was 50%. The same molecule had a logP in data set [2] of 2.3. Moreover, the Drug uptake entry in data set [8] and in [11] was “Active” in each case. For the same molecule, the outcome in the data set with ECa-109 cell line [4] and in the data set with ECa-109 cell line [14] was Active. Further, in data set [5], the K amounted to 0.0596 min⁻¹.

For the molecule `C=Cc1c(C)c2cc3nc(c4c5[nH]c(cc6nc(cc1[nH]2)C(C)=C6CC)c(C)c5C(=O)C4)[C@@H](CCC(=O)O)[C@@H]3C`, the K in data set [5] was found to be 0.0578 min⁻¹.

Values taken from ChEMBL document CHEMBL4229331, “Synthesis and biological evaluation of 173-dicarboxylethyl-pyropheophorbide-a amide derivatives for photodynamic therapy” (Bioorg Med Chem Lett, 2018).
